Experimental data: ChEMBL document CHEMBL1201862, “PubChem BioAssay data set” (2004)
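Cultured in 96-well plates, cells were exposed to test compound for 48 hours across five concentrations. GI50 = concentration required for 50% inhibition of growth.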 Active and inactive are the calls of the source. Cut-off read from the data, not from the text of the source: active = GI50 up to about 1.1 µM and inactive = higher.

What was measured:
Experiment in all cases: NCI tumour cell line growth inhibition, 48 h
SK-MEL-5 = tested on: SK-MEL-5
OVCAR-8 = tested on: OVCAR-8
SK-MEL-2 = tested on: SK-MEL-2
COLO 205 = tested on: COLO 205
SF-268 = tested on: SF-268
NCI/ADR-RES = tested on: NCI/ADR-RES
A549 = tested on: A549
SN12C = tested on: SN12C
DU-145 = tested on: DU-145
SW-620 = tested on: SW-620
SF-539 = tested on: SF-539
MCF7 = tested on: MCF7
OVCAR-5 = tested on: OVCAR-5
HOP-92 = tested on: HOP-92
MOLT-4 = tested on: MOLT-4
SNB-19 = tested on: SNB-19
Malme-3M = tested on: Malme-3M
HCT-15 = tested on: HCT-15
HL-60 = tested on: HL-60
RXF 393 = tested on: RXF 393
MDA-N = tested on: MDA-N
NCI-H522 = tested on: NCI-H522
SR = tested on: SR
CCRF-CEM = tested on: CCRF-CEM
BT-549 = tested on: BT-549
SNB-75 = tested on: SNB-75
SF-295 = tested on: SF-295
Hs-578T = tested on: Hs-578T
KM12 = tested on: KM12
M14 = tested on: M14
LOX IMVI = tested on: LOX IMVI
SK-MEL-28 = tested on: SK-MEL-28
U-251 = tested on: U-251
HCT-116 = tested on: HCT-116
PC-3 = tested on: PC-3
786-0 = tested on: 786-0
IGROV-1 = tested on: IGROV-1
T47D = tested on: T47D
OVCAR-4 = tested on: OVCAR-4
RPMI-8226 = tested on: RPMI-8226
MDA-MB-231 = tested on: MDA-MB-231
NCI-H23 = tested on: NCI-H23
SK-OV-3 = tested on: SK-OV-3
HOP-62 = tested on: HOP-62
NCI-H460 = tested on: NCI-H460
UO-31 = tested on: UO-31
ACHN = tested on: ACHN
K562 = tested on: K562
UACC-62 = tested on: UACC-62
TK-10 = tested on: TK-10
UACC-257 = tested on: UACC-257
HT-29 = tested on: HT-29
EKVX = tested on: EKVX
NCI-H226 = tested on: NCI-H226
CAKI-1 = tested on: CAKI-1
HCC 2998 = tested on: HCC 2998
A498 = tested on: A498
MDA-MB-435 = tested on: MDA-MB-435
OVCAR-3 = tested on: OVCAR-3

With `Cc1ccc(S(=O)(=O)NC(=O)NC(CO)C(=O)O)cc1` (stereo unspecified) the GI50 (SK-MEL-5) was > 100 µM (inactive), the GI50 (OVCAR-8) was > 100 µM (inactive) and the GI50 (SK-MEL-2) was > 100 µM (inactive). The GI50 (COLO 205) was > 100 µM (inactive), the GI50 (SF-268) was > 100 µM (inactive) and the GI50 (NCI/ADR-RES) was > 100 µM (inactive). For the same compound, the GI50 (A549) was > 100 µM (inactive), the GI50 (SN12C) was > 100 µM (inactive) and the GI50 (DU-145) was > 100 µM (inactive). The GI50 (SW-620) was > 100 µM (inactive), the GI50 (SF-539) was > 100 µM (inactive) and the GI50 (MCF7) was > 100 µM (inactive). The GI50 (OVCAR-5) was > 100 µM (inactive), the GI50 (HOP-92) was > 100 µM (inactive) and the GI50 (MOLT-4) was > 100 µM (inactive). The GI50 (SNB-19) was > 100 µM (inactive), the GI50 (Malme-3M) was > 100 µM (inactive) and the GI50 (HCT-15) was greater than 100 µM. The GI50 (HL-60) was > 100 µM (inactive), the GI50 (RXF 393) was > 100 µM (inactive) and the GI50 (MDA-N) was > 100 µM (inactive). The GI50 (NCI-H522) was > 100 µM (inactive), the GI50 (SR) was > 100 µM (inactive) and the GI50 (CCRF-CEM) was > 100 µM (inactive). For the same compound, the GI50 (BT-549) was > 100 µM (inactive), the GI50 (SNB-75) was > 100 µM (inactive) and the GI50 (SF-295) was > 100 µM (inactive). The GI50 (Hs-578T) was > 100 µM (inactive), the GI50 (KM12) was > 100 µM (inactive) and the GI50 (M14) was > 100 µM (inactive). For the same compound, the GI50 (LOX IMVI) was > 100 µM (inactive), the GI50 (SK-MEL-28) was > 100 µM (inactive) and the GI50 (U-251) was > 100 µM (inactive). For the same compound, the GI50 (HCT-116) was > 100 µM (inactive), the GI50 (PC-3) was > 100 µM (inactive) and the GI50 (786-0) was > 100 µM (inactive). The GI50 (IGROV-1) was > 100 µM (inactive), the GI50 (T47D) was > 100 µM (inactive) and the GI50 (OVCAR-4) was > 100 µM (inactive). The GI50 (RPMI-8226) was > 100 µM (inactive), the GI50 (MDA-MB-231) was > 100 µM (inactive) and the GI50 (NCI-H23) was > 100 µM (inactive). The GI50 (SK-OV-3) was > 100 µM (inactive), the GI50 (HOP-62) was > 100 µM (inactive) and the GI50 (NCI-H460) was > 100 µM (inactive). For the same compound, the GI50 (UO-31) was > 100 µM (inactive), the GI50 (ACHN) was > 100 µM (inactive) and the GI50 (K562) was > 100 µM (inactive). The GI50 (UACC-62) was > 100 µM (inactive), the GI50 (TK-10) was > 100 µM (inactive) and the GI50 (UACC-257) was > 100 µM (inactive). For the same compound, the GI50 (HT-29) was > 100 µM (inactive).

`Cc1c(C#N)c2nc3ccccc3n2c(=O)/c1=C/Nc1ccc(Cl)cc1` was tested, and the GI50 (SK-MEL-5) was 19.4 µM (inactive), the GI50 (EKVX) was 50.7 µM (inactive) and the GI50 (NCI-H226) was 42.3 µM (inactive). For the same compound, the GI50 (OVCAR-8) was 51.3 µM (inactive), the GI50 (SK-MEL-2) was 14.2 µM (inactive) and the GI50 (COLO 205) was 95.1 µM (inactive). The GI50 (SF-268) was 22.9 µM (inactive), the GI50 (NCI/ADR-RES) was 95.7 µM (inactive) and the GI50 (A549) was 53.1 µM (inactive). For the same compound, the GI50 (SN12C) was 93.3 µM (inactive), the GI50 (SW-620) was > 100 µM (inactive) and the GI50 (SF-539) was 12.1 µM (inactive). For the same compound, the GI50 (MCF7) was 55.2 µM (inactive), the GI50 (OVCAR-5) was 9.64 µM (inactive) and the GI50 (HOP-92) was 20.1 µM (inactive). For the same compound, the GI50 (MOLT-4) was 34.9 µM (inactive), the GI50 (SNB-19) was 11 µM (inactive) and the GI50 (Malme-3M) was > 100 µM (inactive). For the same compound, the GI50 (HCT-15) was 8.65 µM, the GI50 (HL-60) was > 100 µM (inactive) and the GI50 (RXF 393) was 11.7 µM (inactive). For the same compound, the GI50 (MDA-N) was > 100 µM (inactive), the GI50 (CAKI-1) was 11.3 µM (inactive) and the GI50 (NCI-H522) was 46.2 µM (inactive). The GI50 (SR) was > 100 µM (inactive), the GI50 (BT-549) was 22.7 µM (inactive) and the GI50 (SNB-75) was 7.21 µM (inactive). For the same compound, the GI50 (HCC 2998) was > 100 µM (inactive), the GI50 (SF-295) was 7.71 µM (inactive) and the GI50 (Hs-578T) was 10.8 µM (inactive). The GI50 (KM12) was 6.61 µM (inactive), the GI50 (M14) was 3.83 µM (inactive) and the GI50 (LOX IMVI) was 30.4 µM (inactive). The GI50 (SK-MEL-28) was > 100 µM (inactive), the GI50 (U-251) was 7.66 µM (inactive) and the GI50 (HCT-116) was 16.6 µM (inactive). For the same compound, the GI50 (A498) was 15.9 µM (inactive), the GI50 (786-0) was 6.25 µM (inactive) and the GI50 (IGROV-1) was 36.1 µM (inactive). For the same compound, the GI50 (T47D) was 37.6 µM (inactive), the GI50 (OVCAR-4) was > 100 µM (inactive) and the GI50 (RPMI-8226) was 37.8 µM (inactive). For the same compound, the GI50 (MDA-MB-231) was 24.8 µM (inactive), the GI50 (NCI-H23) was 18.1 µM (inactive) and the GI50 (SK-OV-3) was 14.1 µM (inactive). The GI50 (HOP-62) was 12.9 µM (inactive), the GI50 (NCI-H460) was 29.2 µM (inactive) and the GI50 (UO-31) was 15.7 µM (inactive). For the same compound, the GI50 (ACHN) was 10.6 µM (inactive), the GI50 (K562) was 2.72 µM (inactive) and the GI50 (MDA-MB-435) was 94.4 µM (inactive). The GI50 (UACC-62) was 15.8 µM (inactive), the GI50 (TK-10) was 14.2 µM (inactive) and the GI50 (UACC-257) was > 100 µM (inactive). The GI50 (HT-29) was > 100 µM (inactive).

For `O=C(Cn1c2ccc(Br)cc2c2nc3ccccc3nc21)NCc1ccccc1`, the GI50 (SK-MEL-5) was > 100 µM (inactive), the GI50 (OVCAR-3) was > 100 µM (inactive) and the GI50 (NCI-H226) was 78.7 µM (inactive). The GI50 (OVCAR-8) was 23.4 µM (inactive), the GI50 (SK-MEL-2) was 25.3 µM (inactive) and the GI50 (COLO 205) was > 100 µM (inactive). For the same compound, the GI50 (SF-268) was 38 µM (inactive), the GI50 (NCI/ADR-RES) was > 100 µM (inactive) and the GI50 (A549) was > 100 µM (inactive). The GI50 (SN12C) was > 100 µM (inactive), the GI50 (DU-145) was > 100 µM (inactive) and the GI50 (SW-620) was > 100 µM (inactive). The GI50 (OVCAR-5) was > 100 µM (inactive), the GI50 (HOP-92) was 2.01 µM (inactive) and the GI50 (MOLT-4) was > 100 µM (inactive). The GI50 (SNB-19) was 22.3 µM (inactive), the GI50 (Malme-3M) was 41.7 µM (inactive) and the GI50 (HCT-15) was greater than 100 µM. The GI50 (RXF 393) was 12 µM (inactive), the GI50 (MDA-N) was > 100 µM (inactive) and the GI50 (CAKI-1) was 26.8 µM (inactive). The GI50 (SR) was 39.4 µM (inactive), the GI50 (CCRF-CEM) was > 100 µM (inactive) and the GI50 (BT-549) was 39.9 µM (inactive). For the same compound, the GI50 (SNB-75) was 4.45 µM (inactive), the GI50 (HCC 2998) was > 100 µM (inactive) and the GI50 (SF-295) was 29 µM (inactive). The GI50 (Hs-578T) was 22.1 µM (inactive), the GI50 (KM12) was > 100 µM (inactive) and the GI50 (M14) was 89.9 µM (inactive). For the same compound, the GI50 (LOX IMVI) was 42.9 µM (inactive), the GI50 (SK-MEL-28) was > 100 µM (inactive) and the GI50 (U-251) was 15 µM (inactive). The GI50 (HCT-116) was 94.6 µM (inactive), the GI50 (A498) was 31.2 µM (inactive) and the GI50 (PC-3) was > 100 µM (inactive). For the same compound, the GI50 (786-0) was 13 µM (inactive), the GI50 (IGROV-1) was 67 µM (inactive) and the GI50 (T47D) was 4.1 µM (inactive). The GI50 (OVCAR-4) was 53.1 µM (inactive), the GI50 (RPMI-8226) was > 100 µM (inactive) and the GI50 (MDA-MB-231) was 35.4 µM (inactive). For the same compound, the GI50 (NCI-H23) was 37.7 µM (inactive), the GI50 (SK-OV-3) was 44.3 µM (inactive) and the GI50 (HOP-62) was 23 µM (inactive). For the same compound, the GI50 (NCI-H460) was > 100 µM (inactive), the GI50 (UO-31) was > 100 µM (inactive) and the GI50 (ACHN) was 13.4 µM (inactive). The GI50 (K562) was > 100 µM (inactive), the GI50 (MDA-MB-435) was > 100 µM (inactive) and the GI50 (UACC-62) was 24.4 µM (inactive). For the same compound, the GI50 (TK-10) was 17.7 µM (inactive), the GI50 (UACC-257) was > 100 µM (inactive) and the GI50 (HT-29) was > 100 µM (inactive).
